In ChEMBL document CHEMBL5352478, “Novel pyridine-containing histone deacetylase inhibitors strongly arrest proliferation, induce apoptosis and modulate miRNAs in cancer cells” (Eur J Med Chem, 2023):

Key:
Histone deacetylase 1 = Histone deacetylase 1 (Homo sapiens, UniProt Q13547)
Histone deacetylase 3 = Histone deacetylase 3 (Homo sapiens, UniProt O15379)
Histone deacetylase 2 = Histone deacetylase 2 (Homo sapiens, UniProt Q92769)
Histone deacetylase 5 = Histone deacetylase 5 (Homo sapiens, UniProt Q9UQL6)
[1] = target: T1, Polyamine deacetylase HDAC10 (Homo sapiens, UniProt Q969S8)
T1 sequence (Q969S8 whole entry): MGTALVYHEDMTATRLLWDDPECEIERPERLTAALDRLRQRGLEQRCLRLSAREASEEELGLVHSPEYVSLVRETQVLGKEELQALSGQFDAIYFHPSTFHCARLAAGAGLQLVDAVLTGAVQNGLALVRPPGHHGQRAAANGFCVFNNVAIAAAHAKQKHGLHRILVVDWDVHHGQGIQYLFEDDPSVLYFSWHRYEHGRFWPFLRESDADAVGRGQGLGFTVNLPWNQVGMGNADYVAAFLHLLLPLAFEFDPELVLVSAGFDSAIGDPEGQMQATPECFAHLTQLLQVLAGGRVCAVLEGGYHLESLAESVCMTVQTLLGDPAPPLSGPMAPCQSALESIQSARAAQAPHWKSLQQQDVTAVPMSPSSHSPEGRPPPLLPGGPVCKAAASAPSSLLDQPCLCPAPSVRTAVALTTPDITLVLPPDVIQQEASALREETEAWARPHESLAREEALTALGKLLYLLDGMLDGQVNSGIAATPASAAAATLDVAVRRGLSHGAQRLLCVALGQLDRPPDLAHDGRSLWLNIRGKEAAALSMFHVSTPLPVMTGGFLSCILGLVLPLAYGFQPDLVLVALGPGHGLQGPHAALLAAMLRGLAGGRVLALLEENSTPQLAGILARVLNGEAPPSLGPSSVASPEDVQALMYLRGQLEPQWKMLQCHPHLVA

HCT-116 = test: cells; assay type: functional, cell-based; conditions: Homo sapiens, HCT-116, 72 h
A549 = test: cells; assay type: functional, cell-based; conditions: Homo sapiens, A549, 72 h
K562 [2] = test: cells; assay type: functional, cell-based; conditions: Homo sapiens, K562, 72 h
K562 [3] = test: Potency index, ratio of SAHA IC50 to test compound IC50 for antiproliferative activity against human K562 cell; assay type: functional
U-937 [4] = test: Induction of cell cycle arrest in human U-937 cells assessed as accumulation of cells in pre-G1 phase at 5 uM for 24 hrs by PI staining based flow cytometric analysis; assay type: functional
U-937 [5] = test: Induction of cell cycle arrest in human U-937 cells assessed as accumulation of cells in pre-G1 phase at 1 uM for 48 hrs by PI staining based flow cytometric analysis; assay type: functional
U-937 [6] = test: Induction of cell cycle arrest in human U-937 cells assessed as accumulation of cells in G1 phase at 1 to 5 uM for 48 hrs by PI staining based flow cytometric analysis; assay type: functional; conditions: dose 1-5 µM
OCI-AML-3 = test: Antiproliferative activity against human OCI-AML-3 cells incubated for 48 hrs; assay type: functional, cell-based; conditions: OCI-AML-3, 48 h
[7] = Antiproliferative activity against human IMS-M2 cells incubated for 48 hrs; assay type: functional, cell-based; conditions: IMS-M2, 48 h
OCI-AML2 = test: Antiproliferative activity against human OCI-AML2 cells incubated for 48 hrs; assay type: functional, cell-based; conditions: OCI-AML2, 48 h
MV4-11 = test: Antiproliferative activity against human MV4-11 cells incubated for 48 hrs; assay type: functional, cell-based; conditions: MV4-11, 48 h
Kasumi 1 = test: Antiproliferative activity against human Kasumi 1 cells incubated for 48 hrs; assay type: functional, cell-based; conditions: Kasumi 1, 48 h
U-937 [8] = test: Antiproliferative activity against human U-937 cells incubated for 48 hrs; assay type: functional, cell-based; conditions: U-937, 48 h
HL-60 = test: Antiproliferative activity against human HL-60 cells incubated for 48 hrs; assay type: functional, cell-based; conditions: HL-60, 48 h
KARPAS-299 = test: Antiproliferative activity against human KARPAS-299 cells incubated for 48 hrs; assay type: functional, cell-based; conditions: KARPAS-299, 48 h
NB-4 = test: Antiproliferative activity against human NB4 cells incubated for 48 hrs; assay type: functional, cell-based; conditions: NB-4, 48 h
Histone deacetylase 8 [9] = target: T2, Histone deacetylase 8 (Homo sapiens, UniProt Q9BY41)
T2 sequence (Q9BY41 whole entry): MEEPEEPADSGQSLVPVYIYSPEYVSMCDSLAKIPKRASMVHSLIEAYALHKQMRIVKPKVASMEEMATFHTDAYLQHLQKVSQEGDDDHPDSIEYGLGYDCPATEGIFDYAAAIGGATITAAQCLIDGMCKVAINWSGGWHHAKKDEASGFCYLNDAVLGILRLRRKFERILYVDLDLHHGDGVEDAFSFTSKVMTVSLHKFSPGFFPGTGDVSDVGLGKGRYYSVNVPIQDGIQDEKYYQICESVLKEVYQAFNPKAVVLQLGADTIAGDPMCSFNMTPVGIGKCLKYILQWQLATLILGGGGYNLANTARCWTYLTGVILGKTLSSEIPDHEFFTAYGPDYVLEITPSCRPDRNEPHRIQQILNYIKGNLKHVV

Histone deacetylase 7 [10] = target: T3, Histone deacetylase 7 (Homo sapiens, UniProt Q8WUI4)
T3 sequence (Q8WUI4 whole entry): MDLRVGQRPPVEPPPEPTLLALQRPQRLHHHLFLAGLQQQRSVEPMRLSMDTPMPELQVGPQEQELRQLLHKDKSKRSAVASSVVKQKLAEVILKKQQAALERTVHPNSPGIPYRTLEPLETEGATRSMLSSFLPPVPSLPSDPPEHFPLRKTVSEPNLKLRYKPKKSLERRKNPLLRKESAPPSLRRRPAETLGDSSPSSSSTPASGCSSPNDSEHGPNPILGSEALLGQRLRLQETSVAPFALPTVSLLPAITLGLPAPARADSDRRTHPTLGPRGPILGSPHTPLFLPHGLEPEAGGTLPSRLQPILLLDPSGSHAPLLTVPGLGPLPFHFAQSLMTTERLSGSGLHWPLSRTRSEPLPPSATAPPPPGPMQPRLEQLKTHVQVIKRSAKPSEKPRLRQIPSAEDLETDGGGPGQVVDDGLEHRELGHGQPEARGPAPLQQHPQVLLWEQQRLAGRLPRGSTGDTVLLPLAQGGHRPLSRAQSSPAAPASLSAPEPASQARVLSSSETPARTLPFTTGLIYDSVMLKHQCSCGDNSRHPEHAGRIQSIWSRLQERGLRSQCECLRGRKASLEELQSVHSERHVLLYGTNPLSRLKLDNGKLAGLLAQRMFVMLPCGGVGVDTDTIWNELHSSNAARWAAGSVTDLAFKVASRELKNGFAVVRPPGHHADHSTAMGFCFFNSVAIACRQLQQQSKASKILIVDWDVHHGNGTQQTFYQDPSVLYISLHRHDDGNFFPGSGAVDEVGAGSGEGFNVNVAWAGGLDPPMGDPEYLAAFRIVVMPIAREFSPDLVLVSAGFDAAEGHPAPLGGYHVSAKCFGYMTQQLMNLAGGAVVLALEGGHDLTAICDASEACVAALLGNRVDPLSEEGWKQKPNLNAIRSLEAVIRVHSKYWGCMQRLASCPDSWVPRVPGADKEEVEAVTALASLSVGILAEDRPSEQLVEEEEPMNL

Histone deacetylase 9 [11] = target: T4, Histone deacetylase 9 (Homo sapiens, UniProt Q9UKV0)
Histone deacetylase 11 = target: T5, Histone deacetylase 11 (Homo sapiens, UniProt Q96DB2)
T5 sequence (Q96DB2 whole entry): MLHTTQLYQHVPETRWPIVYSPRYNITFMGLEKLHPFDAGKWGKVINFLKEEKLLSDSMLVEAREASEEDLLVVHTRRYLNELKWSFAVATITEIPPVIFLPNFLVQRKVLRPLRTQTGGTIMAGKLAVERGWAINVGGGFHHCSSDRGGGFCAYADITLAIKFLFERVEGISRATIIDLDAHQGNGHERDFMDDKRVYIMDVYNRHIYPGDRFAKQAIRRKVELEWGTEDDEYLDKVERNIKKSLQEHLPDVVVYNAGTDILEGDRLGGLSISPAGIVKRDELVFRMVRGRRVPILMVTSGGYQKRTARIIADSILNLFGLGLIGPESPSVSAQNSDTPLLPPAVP

Histone deacetylase 4 = Histone deacetylase 4 (Homo sapiens, UniProt P56524)
Histone deacetylase 8 [12] = target: T2, Histone deacetylase 8; remark: listed apart in the source
Histone deacetylase 7 [13] = target: T3, Histone deacetylase 7; remark: listed apart in the source
Histone deacetylase 9 [14] = target: T4, Histone deacetylase 9; remark: listed apart in the source

Histone deacetylase 5, sequence (Q9UQL6 whole entry): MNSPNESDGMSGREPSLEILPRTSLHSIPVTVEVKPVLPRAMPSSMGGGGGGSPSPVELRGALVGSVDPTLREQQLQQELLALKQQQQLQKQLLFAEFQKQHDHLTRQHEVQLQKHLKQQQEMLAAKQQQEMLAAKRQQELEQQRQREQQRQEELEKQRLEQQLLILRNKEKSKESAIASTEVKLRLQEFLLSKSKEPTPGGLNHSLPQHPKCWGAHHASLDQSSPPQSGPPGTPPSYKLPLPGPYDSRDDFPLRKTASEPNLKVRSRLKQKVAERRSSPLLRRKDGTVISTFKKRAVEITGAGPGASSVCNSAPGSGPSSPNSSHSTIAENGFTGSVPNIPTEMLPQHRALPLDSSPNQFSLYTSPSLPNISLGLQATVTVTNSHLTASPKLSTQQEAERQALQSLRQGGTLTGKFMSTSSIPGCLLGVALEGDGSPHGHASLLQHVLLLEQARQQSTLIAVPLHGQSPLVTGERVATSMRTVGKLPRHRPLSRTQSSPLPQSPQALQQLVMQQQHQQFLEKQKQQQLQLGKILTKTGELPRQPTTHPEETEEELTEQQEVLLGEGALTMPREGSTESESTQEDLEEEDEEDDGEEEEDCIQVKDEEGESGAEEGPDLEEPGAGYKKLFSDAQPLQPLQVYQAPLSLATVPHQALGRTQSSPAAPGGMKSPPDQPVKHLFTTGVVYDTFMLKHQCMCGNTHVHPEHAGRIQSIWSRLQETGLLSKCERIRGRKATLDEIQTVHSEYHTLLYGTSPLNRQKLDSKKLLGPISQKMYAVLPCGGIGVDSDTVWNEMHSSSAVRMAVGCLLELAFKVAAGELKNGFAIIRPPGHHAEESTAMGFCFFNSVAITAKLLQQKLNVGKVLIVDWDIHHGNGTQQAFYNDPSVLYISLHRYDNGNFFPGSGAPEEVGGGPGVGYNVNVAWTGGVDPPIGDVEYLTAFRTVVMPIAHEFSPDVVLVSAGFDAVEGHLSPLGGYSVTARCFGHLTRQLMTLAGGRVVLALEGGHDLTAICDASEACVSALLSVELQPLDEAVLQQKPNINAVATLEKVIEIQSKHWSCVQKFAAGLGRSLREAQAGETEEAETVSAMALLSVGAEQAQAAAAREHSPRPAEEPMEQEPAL
Histone deacetylase 1, sequence (Q13547 whole entry): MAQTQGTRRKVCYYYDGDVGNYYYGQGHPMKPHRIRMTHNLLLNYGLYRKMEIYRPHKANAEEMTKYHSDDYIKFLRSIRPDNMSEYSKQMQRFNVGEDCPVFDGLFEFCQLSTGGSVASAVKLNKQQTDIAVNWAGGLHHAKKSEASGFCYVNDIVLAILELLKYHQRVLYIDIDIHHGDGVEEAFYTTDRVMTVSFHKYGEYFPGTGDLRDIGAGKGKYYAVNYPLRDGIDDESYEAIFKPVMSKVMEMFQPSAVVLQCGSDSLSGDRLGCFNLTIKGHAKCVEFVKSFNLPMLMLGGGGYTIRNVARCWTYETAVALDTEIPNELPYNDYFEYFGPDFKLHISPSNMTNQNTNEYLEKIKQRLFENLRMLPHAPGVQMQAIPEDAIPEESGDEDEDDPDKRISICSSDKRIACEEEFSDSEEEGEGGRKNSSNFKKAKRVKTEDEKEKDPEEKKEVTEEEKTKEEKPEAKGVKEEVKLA
Histone deacetylase 3, sequence (O15379 whole entry): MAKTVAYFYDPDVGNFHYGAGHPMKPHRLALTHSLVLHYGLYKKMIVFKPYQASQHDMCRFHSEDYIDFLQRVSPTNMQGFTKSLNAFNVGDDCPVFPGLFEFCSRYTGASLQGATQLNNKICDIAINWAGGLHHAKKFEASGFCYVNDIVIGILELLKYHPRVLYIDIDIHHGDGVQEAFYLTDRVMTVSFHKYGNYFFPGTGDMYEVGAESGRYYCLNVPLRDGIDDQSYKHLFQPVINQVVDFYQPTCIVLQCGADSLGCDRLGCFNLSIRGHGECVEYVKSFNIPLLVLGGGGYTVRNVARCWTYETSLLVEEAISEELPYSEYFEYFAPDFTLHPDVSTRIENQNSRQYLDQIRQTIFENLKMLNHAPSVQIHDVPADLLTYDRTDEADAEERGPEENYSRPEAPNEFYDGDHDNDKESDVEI
Histone deacetylase 2, sequence (Q92769 whole entry): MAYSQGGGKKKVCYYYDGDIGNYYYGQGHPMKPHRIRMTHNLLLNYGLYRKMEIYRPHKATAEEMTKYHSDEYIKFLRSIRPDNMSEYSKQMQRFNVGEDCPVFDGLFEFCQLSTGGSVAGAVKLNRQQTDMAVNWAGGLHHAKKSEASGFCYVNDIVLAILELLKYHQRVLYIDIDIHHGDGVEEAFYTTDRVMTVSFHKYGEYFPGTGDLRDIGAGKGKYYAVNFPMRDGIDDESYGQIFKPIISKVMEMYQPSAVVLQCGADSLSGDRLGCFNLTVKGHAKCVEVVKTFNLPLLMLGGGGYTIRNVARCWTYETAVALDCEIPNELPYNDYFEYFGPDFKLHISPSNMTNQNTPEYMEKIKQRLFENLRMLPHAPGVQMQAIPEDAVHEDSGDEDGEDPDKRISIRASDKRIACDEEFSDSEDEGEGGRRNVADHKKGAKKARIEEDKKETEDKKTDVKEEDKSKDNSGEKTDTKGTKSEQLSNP
T4 sequence (Q9UKV0 whole entry): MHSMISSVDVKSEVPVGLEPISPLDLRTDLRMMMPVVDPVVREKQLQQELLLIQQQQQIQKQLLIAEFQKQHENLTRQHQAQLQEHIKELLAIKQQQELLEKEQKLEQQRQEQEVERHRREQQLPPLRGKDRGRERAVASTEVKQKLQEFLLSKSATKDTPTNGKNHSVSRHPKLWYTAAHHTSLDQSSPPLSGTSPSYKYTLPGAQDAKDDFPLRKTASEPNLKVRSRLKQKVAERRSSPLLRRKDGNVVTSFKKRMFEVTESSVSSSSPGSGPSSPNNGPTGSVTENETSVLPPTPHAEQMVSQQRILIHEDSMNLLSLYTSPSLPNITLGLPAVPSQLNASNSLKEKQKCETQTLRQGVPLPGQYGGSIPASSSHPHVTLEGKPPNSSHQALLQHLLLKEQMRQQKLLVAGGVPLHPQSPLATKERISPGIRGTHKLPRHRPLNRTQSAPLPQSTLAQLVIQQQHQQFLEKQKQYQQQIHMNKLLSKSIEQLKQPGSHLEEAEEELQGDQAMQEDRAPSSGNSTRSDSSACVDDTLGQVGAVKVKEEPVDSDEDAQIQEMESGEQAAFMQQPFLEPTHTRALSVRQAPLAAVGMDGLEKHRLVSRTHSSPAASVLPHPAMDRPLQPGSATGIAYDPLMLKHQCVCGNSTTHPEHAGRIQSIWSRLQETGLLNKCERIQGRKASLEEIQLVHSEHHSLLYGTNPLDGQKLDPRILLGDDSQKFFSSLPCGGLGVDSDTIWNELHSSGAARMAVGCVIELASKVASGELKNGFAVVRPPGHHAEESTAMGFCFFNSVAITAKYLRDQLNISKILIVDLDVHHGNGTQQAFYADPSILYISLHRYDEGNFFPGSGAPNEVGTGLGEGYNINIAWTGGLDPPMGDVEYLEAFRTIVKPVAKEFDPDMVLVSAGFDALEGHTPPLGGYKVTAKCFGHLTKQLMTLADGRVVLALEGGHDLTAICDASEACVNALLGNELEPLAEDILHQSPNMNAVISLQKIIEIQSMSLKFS
Histone deacetylase 4, sequence (P56524 whole entry): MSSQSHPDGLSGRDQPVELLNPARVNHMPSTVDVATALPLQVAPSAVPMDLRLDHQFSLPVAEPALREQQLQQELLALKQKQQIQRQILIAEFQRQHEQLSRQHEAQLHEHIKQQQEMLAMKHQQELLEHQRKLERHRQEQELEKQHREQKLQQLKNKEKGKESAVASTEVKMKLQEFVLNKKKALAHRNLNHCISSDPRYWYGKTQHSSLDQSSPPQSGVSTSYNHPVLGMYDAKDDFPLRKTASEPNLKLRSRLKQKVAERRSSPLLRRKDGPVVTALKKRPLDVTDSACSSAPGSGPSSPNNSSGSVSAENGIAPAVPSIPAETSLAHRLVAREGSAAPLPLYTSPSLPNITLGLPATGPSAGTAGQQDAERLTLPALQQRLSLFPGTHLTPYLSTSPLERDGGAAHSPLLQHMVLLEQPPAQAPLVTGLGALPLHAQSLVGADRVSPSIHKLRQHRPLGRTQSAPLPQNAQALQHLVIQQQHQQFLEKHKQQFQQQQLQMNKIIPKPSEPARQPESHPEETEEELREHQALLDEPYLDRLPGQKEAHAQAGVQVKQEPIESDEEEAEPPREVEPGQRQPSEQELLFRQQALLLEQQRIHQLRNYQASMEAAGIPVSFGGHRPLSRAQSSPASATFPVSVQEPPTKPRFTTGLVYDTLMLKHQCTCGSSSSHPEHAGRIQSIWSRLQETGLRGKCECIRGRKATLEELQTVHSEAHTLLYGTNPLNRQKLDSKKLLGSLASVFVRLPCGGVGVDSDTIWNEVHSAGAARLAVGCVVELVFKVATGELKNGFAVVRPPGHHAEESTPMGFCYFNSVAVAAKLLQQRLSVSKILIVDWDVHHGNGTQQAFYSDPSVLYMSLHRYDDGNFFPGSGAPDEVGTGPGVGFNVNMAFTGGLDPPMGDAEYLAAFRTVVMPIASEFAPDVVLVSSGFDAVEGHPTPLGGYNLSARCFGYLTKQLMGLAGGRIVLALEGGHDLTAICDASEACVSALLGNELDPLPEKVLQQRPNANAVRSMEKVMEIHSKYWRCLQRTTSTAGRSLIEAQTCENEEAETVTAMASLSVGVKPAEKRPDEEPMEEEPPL

Compound | IC50 (Histone deacetylase 1) [nM] | IC50 (Histone deacetylase 3) [nM] | IC50 (Histone deacetylase 2) [nM] | IC50 [1] [nM] | IC50 (HCT-116) [nM] | IC50 (A549) [nM] | IC50 (K562 [2]) [nM] | Activity (U-937 [4]) [%] | Activity (U-937 [6]) [%] | IC50 (Histone deacetylase 11) [µM] | also measured
O=C(/C=C/c1ccc(NC(=O)Cc2cccc3ccccc23)cn1)NO | 98 | 39 | 156 | 71 | 70 | 320 | 50 | 10 | 70 | 3.98 | IC50 (Histone deacetylase 5; read-out: IC50): 1350 nM; Ratio IC50 (K562 [3]): 10; Activity (U-937 [5]): 40%; IC50 (OCI-AML-3): 529 nM; IC50 [7]: 198 nM; IC50 (OCI-AML2): 379 nM; IC50 (MV4-11): 59 nM; IC50 (Kasumi 1): 66 nM; IC50 (U-937 [8]): 258 nM; IC50 (HL-60): 276 nM; IC50 (KARPAS-299): 400 nM; IC50 (NB-4): 84 nM; IC50 (Histone deacetylase 8 [9]): 47 nM; IC50 (Histone deacetylase 7 [10]): 2060 nM; IC50 (Histone deacetylase 9 [11]): 2790 nM
Nc1ccccc1NC(=O)c1ccc(NC(=O)C(Cc2ccccc2)c2ccccc2)cn1 (stereo not given) | 353 | 515 | 431 | 320 | 320 | 1510 | 320 | 10 | 70 | 85.4 | IC50 (Histone deacetylase 4): Not Active; IC50 (Histone deacetylase 5): Not Active; IC50 (Histone deacetylase 8 [12]): Not Active; IC50 (Histone deacetylase 7 [13]): Not Active; IC50 (Histone deacetylase 9 [14]): Not Active
